Laboratory results taken from patent publication US11208675B2, “Reaction accelerating agent” (Kikkoman Corporation, priority 2016, dated 2021).

Key:
[1] = target: T1, peroxidase PEO-301 (Toyobo Co., Ltd.) (Armoracia rusticana, UniProt P00433); test: Hydrogen peroxide detection reaction mediated by peroxidase, completed using an excess of peroxidase (Example 1); assay type: biochemical; conditions: 0.067 U/ml peroxidase, 0.48% (w/v) compound in second reagent, 0.00012% (w/v) hydrogen peroxide, DA-67, pH 6.5, 37° C.; for ΔA9 min: ΔA of A694/751, 9 minutes after mixing second reagent with first reagent-A; for ΔA10 min: ΔA of A694/751, 10 minutes after mixing second reagent with first reagent-A (defined as ΔA100%)
T1 construct: purchased Toyobo Co., Ltd. PEO-301
T1 sequence (P00433 31-338): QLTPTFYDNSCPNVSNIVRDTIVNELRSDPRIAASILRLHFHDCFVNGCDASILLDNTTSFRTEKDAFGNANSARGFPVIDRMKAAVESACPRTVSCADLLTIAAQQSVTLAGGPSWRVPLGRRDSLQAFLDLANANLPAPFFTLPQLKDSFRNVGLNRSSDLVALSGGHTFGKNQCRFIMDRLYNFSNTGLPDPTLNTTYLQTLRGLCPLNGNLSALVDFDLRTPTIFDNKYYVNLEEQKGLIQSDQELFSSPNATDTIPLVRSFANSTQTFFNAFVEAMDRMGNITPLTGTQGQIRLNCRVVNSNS
Description: In this Example the amount of change in absorbance was determined when hydrogen peroxide detection reaction was completed using an excess of peroxidase.
A reagent for hydrogen peroxide measurement having the following composition (formulation) was prepared, and the measurement of hydrogen peroxide was carried out using Bio Majesty JCA-BM1650 (manufactured by JEOL Ltd.).
(§1) 100 mM MOPS-NaOH buffer solution, pH 6.5
(§2) 0.00012% (w/v) hydrogen peroxide
(§3) 30 mM MOPS-NaOH buffer solution, pH 6.5
(§4) 0.2% (w/v) n-dodecyl-β-D-maltoside (manufactured by Dojindo Laboratories)
0.067 U/ml peroxidase PEO-301 (Toyobo Co., Ltd.)
(§5) 0.023 mM 10-(carboxymethylaminocarbonyl)-3,7-bis(dimethylamino)phenothiazine sodium (DA-67, manufactured by Wako Pure Chemical Industries, Ltd.)
0.48% (w/v) of the compound of Comparative Example 2 (Wako Pure Chemical Industries, Ltd.), any one compound of the present invention (all from Tokyo Chemical Industry Co., Ltd.), or compound-free (Comparative Example 1) ion-exchange water as shown in Table 1
(§6) 8 μl of the second reagent was added to 96 μl of the first reagent-A, and the mixture was incubated at 37° C. for 5 minutes. Then, 24 μl of the sample was added thereto, and the quantitative reaction of hydrogen peroxide was allowed to progress at 37° C. for 5 minutes. The absorbance (A694 and A751) of the reaction solution for light at wavelengths of 694 nm and 751 nm was measured over time for 10 minutes after the mixing of the second reagent with the first reagent-A to determine the value of subtraction of A751 from A694, i.e., the value of A694/751. Subsequently, ΔA was calculated by subtracting, from A694/751, the value of (104/128) times A694/751 4.8 minutes after the mixing of the second reagent with the first reagent-A. Incidentally, 4.8 minutes after the mixing of the second reagent with the first reagent-A represents the time immediately before the addition of the sample. ΔA 9 minutes and 10 minutes after the mixing of the second reagent with the first reagent-A (ΔA9 min and ΔA10 min) is shown in Table 1.
In other words, it can be understood that the quantitative reaction of hydrogen peroxide was completed in 10 minutes after the mixing of the second reagent with the first reagent-A. Accordingly, ΔA10 min in each Comparative Example or the present invention was defined as ΔA when 100% of the quantitative reaction of hydrogen peroxide progressed under each condition (ΔA100%).

[2] = target: T1, peroxidase PEO-301 (Toyobo Co., Ltd.); test: Acceleration of hydrogen peroxide detection reaction mediated by peroxidase, using a small amount of peroxidase (Example 2); assay type: biochemical; conditions: 0.013 U/ml peroxidase; for acceleration of hydrogen peroxide detection reaction using peroxidase: as shown in Table 2, compared with not added; for Degree of progression of reaction (%) after 7.5 minutes / Degree of progression of reaction (%) after 10 minutes: ΔA divided by ΔA100%, 0.48% (w/v) compound in second reagent, 37° C.; for Degree of progression of reaction (%) after 7.5 minutes: 7.5 minutes after mixing second reagent with first reagent-B (2.5 minutes after addition of sample); for Degree of progression of reaction (%) after 10 minutes: 10 minutes after mixing second reagent with first reagent-B (5 minutes after addition of sample)
Description: Next, in this Example, the degree of acceleration of hydrogen peroxide detection reaction by the compound of the present invention was determined using a small amount of peroxidase.
A reagent for Hydrogen peroxide measurement having the following composition was prepared, and the measurement of hydrogen peroxide was carried out using Bio Majesty JCA-BM1650 (manufactured by JEOL Ltd.).
as §1, §2, §3, §4
0.013 U/ml peroxidase PEO-301 (Toyobo Co., Ltd.)
as §5
0.48% (w/v) of the compound of Comparative Example 2, any one compound of the present invention, or compound-free (Comparative Example 1) ion-exchange water as shown in Table 2
as §6, with “reagent-B,” for “reagent-A,”, “reagent-B” for “reagent-A”, “reagent-B.” for “reagent-A.”, “sample.” for “sample. ΔA 9 minutes and 10 minutes after the mixing of the second reagent with the first reagent-A (ΔA9 min and ΔA10 min) is shown in Table 1.”
Next, ΔA calculated in this Example was divided by ΔA100% defined in Example 1 to calculate the degree of progression of hydrogen peroxide detection reaction. The degree of progression of hydrogen peroxide detection reaction 7.5 and 10 minutes after the mixing of the second reagent with the first reagent-B (in other words, 2.5 and 5 minutes, respectively, after the addition of the sample) is shown in Table 2.

Compound | ΔA9 min [1] | ΔA10 min [1] | acceleration of hydrogen peroxide detection reaction using peroxidase [2] | Degree of progression of reaction (%) after 7.5 minutes [2] | Degree of progression of reaction (%) after 10 minutes [2]
Chrome Yellow | 0.272 | 0.272 | accelerated | 66% | 92%
O=C([O-])c1cc(N=Nc2cccc([N+](=O)[O-])c2)ccc1O.[Na+] [Alizarin Yellow GG] | 0.170 | 0.170 | accelerated | 64% | 89%
Oc1ccc(N=Nc2ccccc2)cc1 [4-(Phenylazo)phenol, 4-(phenylazo)phenol] | 0.122 | 0.122 | accelerated | 69% | 90%
O=C(O)c1cc2ccccc2c(N=Nc2c(O)cc(S(=O)(=O)O)c3ccccc23)c1O [2-hydroxy-1-(2-hydroxy-4-sulfo-1-naphthylazo)-3-naphthoic acid] | 0.084 | 0.085 | accelerated | 61% | 90%
COc1cc(N=Nc2cccc(S(=O)(=O)[O-])c2)ccc1NC(=O)Nc1ccc(N=Nc2ccc(O)c(C(=O)[O-])c2)cc1.[Na+].[Na+] [Direct Yellow 44] | 0.228 | 0.228 | accelerated | 64% | 89%
O=C([O-])C1=NN(c2ccc(S(=O)(=O)[O-])cc2)C(=O)C1N=Nc1ccc(S(=O)(=O)[O-])cc1.[Na+].[Na+].[Na+] (stereo not drawn) [Tartrazine, reference compound] | 0.344 | 0.344 | accelerated | 57% | 85%
